For two compounds, antigens inactivated results are on record in patent US11366090B2, “Method for the inactivation and inactivation testing of xeno antigens in foods of animal origin, particularly for milk and derivatives, and in foods of plant origin, particularly for milk substitutes based on soy and/or rice” (Biocompatibility Innovation S.R.L., priority 2016, dated 2022).

The structures appear in SMILES notation.

For test [1], the system named is alpha-Gal epitope. The test can be described thus: inactivation test of alpha-Gal epitopes in samples of cow's milk (M86 antibody incubation, centrifugation, alpha-Gal/HSA ELISA). The test is classed as biochemical. As to conditions: 0.5% w/v, ambient temperature. The method, then: incubating samples of milk with the addition of an antibody aimed at the alpha-Gal epitope that is present in the milk; in such embodiment, the antibody is for example a murine monoclonal antibody M86; it should be understood that all mono- or polyclonal antibodies and/or antibodies belonging to different isotypes, which have shown a proven specificity against the antigen in question, can be used; in general, the anti-xenoantigen antibody is an antibody specifically aimed at the alpha-Gal epitope;
separating, by way of centrifugation, the resulting immune complex created owing to the bond between antigen and antibody;
preparing a plate with 96 wells for the E.L.I.S.A. text with coating comprising the xenoantigen epitope, i.e. an alpha-Gal/human serum albumin coating;
adding, in the wells, supernatant taken from the milk samples subjected to centrifuge; the supernatant contains the part of anti-alpha-Gal antibody that has not bonded with epitopes; as is known, a column of wells is adapted to define a reference value, known in the jargon as ‘blank value’, that corresponds to the maximum signal between antibody and epitopes,
completing the plate with a secondary antibody conjugated with an enzyme, or other molecule for qualitative or quantitative evaluation through colorimetric assay, adapted to chromatically highlight the presence if any of the anti-alpha-Gal antibody; in the present embodiment, the secondary antibody is constituted by a rabbit polyclonal anti-mouse antibody, conjugated with the peroxidase enzyme, or with other types, enzymatic or otherwise, capable of providing qualitative or quantitative indications through colorimetric assay;
reading the plate, determining the presence of anti-alpha-Gal antibody that has remained free in the solutions of the samples;
comparing the absorbance values detected in the column that defines the reference values with the values detected in the other columns of samples of the plate.
Two solutions are made up with different concentrations of phenylpropanoid, using the milk as solvent in a total volume of 50 ml. In this specific example, which obviously should be understood to be non-limiting of the invention, an extract of “Lippia Citriodora” was used, titrated at 93% verbascoside. […]
These solutions are left to act under moderate but constant stirring, for a total of […] at 25±5° C.
Samples are taken at 30±2 minutes, 1±0.1 hour and 3±0.1 hours.
An aliquot of milk is taken from each sampling, comprised between 200 ul and 500 ul, and preferably 300 ul, to which a buffer is added, Na3C6H5O7 0.2M at pH 7.0±0.5, until a final volume is reached comprised between 1000 ul and 1500 ul, and preferably a final volume of 1500 ul.
Then a murine antibody, directed against the alpha-Gal epitope, is added (in the present example this is an IgM clone called M86), at the preferable concentration of [1:50] w/v and the whole is incubated for 120±10 minutes at 37±2° C. under constant but moderate stirring.
At the end the samples are subjected to centrifugation at 10,000×g for 30±2 minutes at 4±2° C.
During incubation with the M86 antibody, a plate with 96 wells is prepared with 100 ul per well of alpha-Gal/HSA (Human Serum Albumin) at 5 ug/ml in a PBS buffer (pH 7.0±0.5).
The plate thus prepared is incubated for 60±10 minutes at a temperature comprised between 30° C.-40° C., although it is preferable to stabilize everything at 37° C.±2.0° C.
Then 3 washes are carried out with 300 ul per well of PBS (physiological pH) at ambient temperature.
The first wash is left to act for 5 minutes, the two subsequent washes for 3 minutes each.
The blocking is done with 300 ul per well of 2±0.5% of serum albumin in PBS, followed by covering the plate with protective film and incubation for 60±10 minutes at ambient temperature, in darkness.
Subsequently 3 washes are performed as above. […]
Background: ELISA stands for enzyme-linked immunosorbent assay.

Test [2] has as its system alpha-Gal epitope. As to the kind of experiment: inactivation test of alpha-Gal epitopes in samples of milk substitutes based on rice and soya (M86 antibody incubation, centrifugation, alpha-Gal/HSA ELISA). Type of test: biochemical. As to conditions: milk substitute based on rice and soya, caffeic acid 0.3% w/v (method: 0.5±0.05% w/v), ambient temperature. The procedure:
Three solutions are made up, using a milk substitute based on rice and soya as solvent, for example a substitute comprising 17% rice, 17% soy seeds, in a total volume of 50 ml. In the present example, which is non-limiting of the invention, extracts of “Lippia citriodora” are used, titrated at 93% verbascoside. […] These solutions are left to act under moderate but constant stirring, for a total of 3±0.1 hours at 25±5° C. Samples are taken at 30±2 minutes, 1±0.1 hour and 3±0.1 hours. An aliquot of milk is taken from each sampling, comprised between 200 and 500 ul, and preferably a dose of 300 ul, to which a buffer is added, Na3C6H5O7 at pH 7.0±0.5, until a final volume is reached comprised between 1000 and 1500 ul, and preferably a final volume of 1500 ul. Then a murine antibody, directed against the alpha-Gal epitope, is added, for example an IgM clone called M86, at the preferable concentration of [1:50] w/v and the whole is incubated for 120±10 minutes at 37±2° C. under constant but moderate stirring. At the end the samples are subjected to centrifugation at 10,000×g for 30±2 minutes at 4±2° C. During incubation with the M86 antibody, a plate with 96 wells is prepared with 100 ul per well of alpha-Gal/HSA (Human Serum Albumin) at 5 ug/ml in a PBS buffer (pH 7.0±0.5). The plate thus prepared is incubated for 60±10 minutes at a temperature comprised between 30° C.-40° C., although it is preferable to stabilize everything at 37±2.0° C. Then 3 washes are carried out with 300 ul per well of PBS (physiological pH) at ambient temperature. The first wash is left to act for 5 minutes, the two subsequent washes for 3 minutes each. […] Then 50 ul per well of the stop solution is added, which is constituted by H2SO4 2M and the plate is then read in a plate reader at the wavelength of 450 nm. The test of inactivation is based on the comparison between the absorbance values of column number 1 which constitutes the blank value (100% of antibody available) and the respective columns of the samples. […]

Take `O=C(OC[C@H]1O[C@@H](OC(=O)c2cc(O)c(O)c(OC(=O)c3cc(O)c(O)c(O)c3)c2)[C@H](OC(=O)c2cc(O)c(O)c(OC(=O)c3cc(O)c(O)c(O)c3)c2)[C@@H](OC(=O)c2cc(O)c(O)c(OC(=O)c3cc(O)c(O)c(O)c3)c2)[C@@H]1OC(=O)c1cc(O)c(O)c(OC(=O)c2cc(O)c(O)c(O)c2)c1)c1cc(O)c(O)c(OC(=O)c2cc(O)c(O)c(O)c2)c1` [tannic acid]: the antigens inactivated with alpha-Gal epitope [1] (after 30 minutes) is listed as 67.7±7.1%; in the test on alpha-Gal epitope [1] (after 1 hour) it was 71.8±2.2%; with alpha-Gal epitope [1] (after 3 hours of incubation), 80.6±1.8%.
In the case of `O=C(O)/C=C/c1ccc(O)c(O)c1` [caffeic acid], the antigens inactivated in the test with alpha-Gal epitope [1] (after 30 minutes) is reported as 51.2±4.2%; with alpha-Gal epitope [1] (after 1 hour) it was 61.1±2.6%; in the test on alpha-Gal epitope [1] (after 3 hours of incubation) it was 72.3±2.8%; in the test with alpha-Gal epitope [2] (after 30 minutes), 61.8±2.8%; in the test with alpha-Gal epitope [2] (after 1 hour), 78.3±4.1%; in the test on alpha-Gal epitope [2] (after 3 hours of incubation), 89.2±1.8%.
